Measured values reported in ChEMBL document CHEMBL5352478, “Novel pyridine-containing histone deacetylase inhibitors strongly arrest proliferation, induce apoptosis and modulate miRNAs in cancer cells” (Eur J Med Chem, 2023).
pIC50: −log10 of the molar value. Values joined by “and” are separate entries in the source; they are usually repeats but may differ in a detail not shown here. Equal entries are not always repeated.

Assays:
OCI-AML-3 = test: Antiproliferative activity against human OCI-AML-3 cells incubated for 48 hrs; type: functional, cell-based; details: OCI-AML-3, 48 h
[1] = Antiproliferative activity against human IMS-M2 cells incubated for 48 hrs; type: functional, cell-based; details: IMS-M2, 48 h
HCT-116 = test: cells; type: functional, cell-based; details: Homo sapiens, HCT-116, 72 h
U-937 [2] = test: Induction of cell cycle arrest in human U-937 cells assessed as accumulation of cells in pre-G1 phase at 5 uM for 24 hrs by PI staining based flow cytometric analysis; type: functional
Histone deacetylase 7 = target: T1, Histone deacetylase 7 (Homo sapiens, UniProt Q8WUI4)
T1 sequence (Q8WUI4 whole entry): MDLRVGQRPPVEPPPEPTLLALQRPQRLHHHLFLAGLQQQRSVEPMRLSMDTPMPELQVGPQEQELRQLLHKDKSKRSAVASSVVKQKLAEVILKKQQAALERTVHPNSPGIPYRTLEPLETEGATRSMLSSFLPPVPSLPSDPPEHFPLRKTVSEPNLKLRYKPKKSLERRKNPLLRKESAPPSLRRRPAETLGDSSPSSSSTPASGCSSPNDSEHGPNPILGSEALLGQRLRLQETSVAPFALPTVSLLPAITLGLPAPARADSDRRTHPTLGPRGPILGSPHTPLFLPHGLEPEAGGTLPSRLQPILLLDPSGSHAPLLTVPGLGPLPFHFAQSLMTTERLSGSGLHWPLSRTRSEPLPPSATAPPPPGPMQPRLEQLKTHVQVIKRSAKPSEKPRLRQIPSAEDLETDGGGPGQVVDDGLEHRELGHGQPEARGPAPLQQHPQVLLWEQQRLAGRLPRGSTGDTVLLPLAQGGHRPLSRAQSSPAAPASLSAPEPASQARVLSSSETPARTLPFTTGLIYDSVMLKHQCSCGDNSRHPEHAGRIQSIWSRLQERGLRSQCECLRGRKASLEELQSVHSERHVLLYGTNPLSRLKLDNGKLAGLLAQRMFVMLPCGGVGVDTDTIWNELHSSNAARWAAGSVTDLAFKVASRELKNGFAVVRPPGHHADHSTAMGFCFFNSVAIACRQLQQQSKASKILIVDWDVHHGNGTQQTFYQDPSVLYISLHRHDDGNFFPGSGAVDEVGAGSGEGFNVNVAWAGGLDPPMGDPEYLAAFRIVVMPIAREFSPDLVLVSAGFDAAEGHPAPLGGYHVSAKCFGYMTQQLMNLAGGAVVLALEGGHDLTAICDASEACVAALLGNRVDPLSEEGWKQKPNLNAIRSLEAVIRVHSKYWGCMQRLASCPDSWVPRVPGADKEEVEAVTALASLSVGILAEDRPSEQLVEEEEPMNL

Histone deacetylase 4 = Histone deacetylase 4 (Homo sapiens, UniProt P56524)
Sequence of Histone deacetylase 4 (P56524 whole entry): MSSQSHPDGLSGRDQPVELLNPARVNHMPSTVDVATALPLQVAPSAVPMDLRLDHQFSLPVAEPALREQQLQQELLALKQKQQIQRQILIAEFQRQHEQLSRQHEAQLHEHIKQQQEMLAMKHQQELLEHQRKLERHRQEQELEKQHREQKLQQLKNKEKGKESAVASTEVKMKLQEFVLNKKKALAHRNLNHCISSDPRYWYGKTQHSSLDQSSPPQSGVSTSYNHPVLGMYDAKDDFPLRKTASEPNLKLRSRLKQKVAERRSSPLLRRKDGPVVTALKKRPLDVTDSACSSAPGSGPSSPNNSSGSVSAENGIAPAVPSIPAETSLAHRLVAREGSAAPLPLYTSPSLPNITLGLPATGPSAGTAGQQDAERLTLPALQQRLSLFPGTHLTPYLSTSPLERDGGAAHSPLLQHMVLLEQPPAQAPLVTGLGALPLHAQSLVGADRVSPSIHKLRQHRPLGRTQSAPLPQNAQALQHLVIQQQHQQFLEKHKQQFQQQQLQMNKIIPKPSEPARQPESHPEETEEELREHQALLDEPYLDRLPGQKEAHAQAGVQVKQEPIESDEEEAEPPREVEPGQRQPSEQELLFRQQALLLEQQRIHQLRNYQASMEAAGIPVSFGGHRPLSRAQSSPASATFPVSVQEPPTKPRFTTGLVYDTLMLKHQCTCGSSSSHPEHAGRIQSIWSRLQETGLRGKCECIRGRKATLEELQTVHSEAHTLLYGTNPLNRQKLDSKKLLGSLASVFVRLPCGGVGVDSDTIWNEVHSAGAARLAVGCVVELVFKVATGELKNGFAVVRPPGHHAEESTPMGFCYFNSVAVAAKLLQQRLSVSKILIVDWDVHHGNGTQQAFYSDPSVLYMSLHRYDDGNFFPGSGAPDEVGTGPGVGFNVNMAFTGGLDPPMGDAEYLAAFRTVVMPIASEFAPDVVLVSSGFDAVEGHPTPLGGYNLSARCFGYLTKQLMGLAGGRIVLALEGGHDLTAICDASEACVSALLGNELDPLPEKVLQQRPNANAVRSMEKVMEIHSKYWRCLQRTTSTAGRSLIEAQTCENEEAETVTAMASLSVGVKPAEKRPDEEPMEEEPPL

A549 = test: cells; type: functional, cell-based; details: Homo sapiens, A549, 72 h
Histone deacetylase 1 = Histone deacetylase 1 (Homo sapiens, UniProt Q13547)
Sequence of Histone deacetylase 1 (Q13547 whole entry): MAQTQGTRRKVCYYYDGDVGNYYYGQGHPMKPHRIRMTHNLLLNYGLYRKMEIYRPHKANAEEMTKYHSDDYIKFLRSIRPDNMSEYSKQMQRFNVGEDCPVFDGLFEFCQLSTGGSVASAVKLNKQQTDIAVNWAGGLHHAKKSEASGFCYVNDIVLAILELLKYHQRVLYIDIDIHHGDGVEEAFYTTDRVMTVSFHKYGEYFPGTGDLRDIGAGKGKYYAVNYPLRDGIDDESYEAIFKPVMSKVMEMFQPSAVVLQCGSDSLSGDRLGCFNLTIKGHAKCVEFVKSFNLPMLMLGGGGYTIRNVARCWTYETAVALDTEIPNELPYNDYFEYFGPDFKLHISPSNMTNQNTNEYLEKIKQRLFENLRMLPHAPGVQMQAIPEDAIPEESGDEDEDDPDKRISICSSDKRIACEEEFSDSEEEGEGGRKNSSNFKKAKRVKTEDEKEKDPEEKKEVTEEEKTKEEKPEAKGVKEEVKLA

Histone deacetylase 9 = Histone deacetylase 9 (Homo sapiens, UniProt Q9UKV0)
Sequence of Histone deacetylase 9 (Q9UKV0 whole entry): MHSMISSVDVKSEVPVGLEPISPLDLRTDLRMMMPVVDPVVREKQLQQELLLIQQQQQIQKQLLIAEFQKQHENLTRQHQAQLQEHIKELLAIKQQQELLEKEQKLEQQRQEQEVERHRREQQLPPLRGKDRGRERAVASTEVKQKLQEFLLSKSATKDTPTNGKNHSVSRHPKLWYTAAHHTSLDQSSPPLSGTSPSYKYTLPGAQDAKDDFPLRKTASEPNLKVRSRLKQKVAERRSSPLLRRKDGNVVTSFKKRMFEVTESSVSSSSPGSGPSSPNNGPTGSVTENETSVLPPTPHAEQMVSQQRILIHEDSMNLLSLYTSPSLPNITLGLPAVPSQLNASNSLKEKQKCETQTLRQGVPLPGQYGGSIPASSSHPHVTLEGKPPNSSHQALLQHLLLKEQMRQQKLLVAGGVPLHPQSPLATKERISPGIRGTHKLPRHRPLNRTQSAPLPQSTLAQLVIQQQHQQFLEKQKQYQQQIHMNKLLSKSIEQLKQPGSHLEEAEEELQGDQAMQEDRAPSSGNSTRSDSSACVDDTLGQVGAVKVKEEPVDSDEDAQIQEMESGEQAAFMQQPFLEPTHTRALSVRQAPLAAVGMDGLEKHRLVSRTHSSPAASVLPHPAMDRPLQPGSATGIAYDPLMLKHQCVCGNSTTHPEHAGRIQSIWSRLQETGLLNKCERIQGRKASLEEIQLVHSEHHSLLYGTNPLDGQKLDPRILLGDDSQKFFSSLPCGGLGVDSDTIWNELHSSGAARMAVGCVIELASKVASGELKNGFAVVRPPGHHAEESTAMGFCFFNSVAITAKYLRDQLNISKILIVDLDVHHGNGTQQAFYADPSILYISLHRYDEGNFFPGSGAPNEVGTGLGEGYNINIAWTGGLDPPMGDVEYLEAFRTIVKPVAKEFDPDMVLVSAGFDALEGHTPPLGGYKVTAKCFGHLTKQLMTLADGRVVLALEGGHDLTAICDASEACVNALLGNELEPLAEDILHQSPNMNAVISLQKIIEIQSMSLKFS

Histone deacetylase 11 [3] = target: T2, Histone deacetylase 11 (Homo sapiens, UniProt Q96DB2)
T2 sequence (Q96DB2 whole entry): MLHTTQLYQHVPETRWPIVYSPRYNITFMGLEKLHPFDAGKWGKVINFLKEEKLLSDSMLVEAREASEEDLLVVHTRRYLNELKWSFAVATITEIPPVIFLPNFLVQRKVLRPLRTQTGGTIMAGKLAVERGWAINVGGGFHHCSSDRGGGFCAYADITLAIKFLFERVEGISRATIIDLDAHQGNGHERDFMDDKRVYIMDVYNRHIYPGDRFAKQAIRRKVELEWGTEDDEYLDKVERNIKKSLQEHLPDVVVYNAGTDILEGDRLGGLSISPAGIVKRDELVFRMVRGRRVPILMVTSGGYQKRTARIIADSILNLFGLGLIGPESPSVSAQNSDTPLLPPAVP

Histone deacetylase 8 = target: T3, Histone deacetylase 8 (Homo sapiens, UniProt Q9BY41)
T3 sequence (Q9BY41 whole entry): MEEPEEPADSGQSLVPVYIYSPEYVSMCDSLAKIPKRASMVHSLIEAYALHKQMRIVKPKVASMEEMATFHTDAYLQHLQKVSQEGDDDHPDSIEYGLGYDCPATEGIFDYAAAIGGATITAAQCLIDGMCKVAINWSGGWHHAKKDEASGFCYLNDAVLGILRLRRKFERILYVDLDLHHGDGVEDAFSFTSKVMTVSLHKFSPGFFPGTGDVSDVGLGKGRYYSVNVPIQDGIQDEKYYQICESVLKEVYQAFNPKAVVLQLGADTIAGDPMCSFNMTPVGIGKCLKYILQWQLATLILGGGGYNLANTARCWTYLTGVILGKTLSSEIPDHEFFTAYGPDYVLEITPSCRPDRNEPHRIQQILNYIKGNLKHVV

NB-4 = test: Antiproliferative activity against human NB4 cells incubated for 48 hrs; type: functional, cell-based; details: NB-4, 48 h
U-937 [4] = test: Induction of cell cycle arrest in human U-937 cells assessed as cell death at 5 uM for 48 hrs by PI staining based flow cytometric analysis; type: functional
MV4-11 = test: Antiproliferative activity against human MV4-11 cells incubated for 48 hrs; type: functional, cell-based; details: MV4-11, 48 h
U-937 [5] = test: Antiproliferative activity against human U-937 cells incubated for 48 hrs; type: functional, cell-based; details: U-937, 48 h
[6] = target: T4, Polyamine deacetylase HDAC10 (Homo sapiens, UniProt Q969S8)
T4 sequence (Q969S8 whole entry): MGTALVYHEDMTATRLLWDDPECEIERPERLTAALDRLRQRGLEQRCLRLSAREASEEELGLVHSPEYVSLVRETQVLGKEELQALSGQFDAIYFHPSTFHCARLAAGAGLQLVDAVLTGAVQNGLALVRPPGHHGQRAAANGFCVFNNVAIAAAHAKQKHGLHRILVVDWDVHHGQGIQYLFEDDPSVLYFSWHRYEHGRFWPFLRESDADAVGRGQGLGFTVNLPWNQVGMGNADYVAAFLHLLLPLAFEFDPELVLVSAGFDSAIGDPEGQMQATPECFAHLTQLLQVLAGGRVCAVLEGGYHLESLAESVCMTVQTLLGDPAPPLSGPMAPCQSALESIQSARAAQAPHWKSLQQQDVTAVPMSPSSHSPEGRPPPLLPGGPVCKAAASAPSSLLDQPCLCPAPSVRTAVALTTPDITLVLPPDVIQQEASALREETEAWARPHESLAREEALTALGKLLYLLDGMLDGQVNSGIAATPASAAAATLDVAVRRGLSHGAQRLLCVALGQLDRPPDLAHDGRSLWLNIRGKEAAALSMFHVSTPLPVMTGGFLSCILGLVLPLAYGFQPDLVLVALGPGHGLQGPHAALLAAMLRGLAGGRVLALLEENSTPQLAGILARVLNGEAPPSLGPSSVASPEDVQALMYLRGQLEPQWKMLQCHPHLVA

Histone deacetylase 3 = Histone deacetylase 3 (Homo sapiens, UniProt O15379)
Sequence of Histone deacetylase 3 (O15379 whole entry): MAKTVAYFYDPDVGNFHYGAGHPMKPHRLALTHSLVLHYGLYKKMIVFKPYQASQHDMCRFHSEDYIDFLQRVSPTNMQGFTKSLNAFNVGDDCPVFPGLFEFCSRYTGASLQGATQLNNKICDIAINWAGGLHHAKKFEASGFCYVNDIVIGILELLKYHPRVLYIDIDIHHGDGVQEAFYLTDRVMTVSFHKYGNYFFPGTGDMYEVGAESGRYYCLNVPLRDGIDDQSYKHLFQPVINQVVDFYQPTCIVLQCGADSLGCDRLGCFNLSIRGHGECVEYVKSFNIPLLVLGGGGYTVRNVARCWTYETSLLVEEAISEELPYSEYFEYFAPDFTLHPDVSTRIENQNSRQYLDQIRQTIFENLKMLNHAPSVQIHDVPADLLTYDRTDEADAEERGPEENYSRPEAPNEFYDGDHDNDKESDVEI

Histone deacetylase 5 = Histone deacetylase 5 (Homo sapiens, UniProt Q9UQL6)
Sequence of Histone deacetylase 5 (Q9UQL6 whole entry): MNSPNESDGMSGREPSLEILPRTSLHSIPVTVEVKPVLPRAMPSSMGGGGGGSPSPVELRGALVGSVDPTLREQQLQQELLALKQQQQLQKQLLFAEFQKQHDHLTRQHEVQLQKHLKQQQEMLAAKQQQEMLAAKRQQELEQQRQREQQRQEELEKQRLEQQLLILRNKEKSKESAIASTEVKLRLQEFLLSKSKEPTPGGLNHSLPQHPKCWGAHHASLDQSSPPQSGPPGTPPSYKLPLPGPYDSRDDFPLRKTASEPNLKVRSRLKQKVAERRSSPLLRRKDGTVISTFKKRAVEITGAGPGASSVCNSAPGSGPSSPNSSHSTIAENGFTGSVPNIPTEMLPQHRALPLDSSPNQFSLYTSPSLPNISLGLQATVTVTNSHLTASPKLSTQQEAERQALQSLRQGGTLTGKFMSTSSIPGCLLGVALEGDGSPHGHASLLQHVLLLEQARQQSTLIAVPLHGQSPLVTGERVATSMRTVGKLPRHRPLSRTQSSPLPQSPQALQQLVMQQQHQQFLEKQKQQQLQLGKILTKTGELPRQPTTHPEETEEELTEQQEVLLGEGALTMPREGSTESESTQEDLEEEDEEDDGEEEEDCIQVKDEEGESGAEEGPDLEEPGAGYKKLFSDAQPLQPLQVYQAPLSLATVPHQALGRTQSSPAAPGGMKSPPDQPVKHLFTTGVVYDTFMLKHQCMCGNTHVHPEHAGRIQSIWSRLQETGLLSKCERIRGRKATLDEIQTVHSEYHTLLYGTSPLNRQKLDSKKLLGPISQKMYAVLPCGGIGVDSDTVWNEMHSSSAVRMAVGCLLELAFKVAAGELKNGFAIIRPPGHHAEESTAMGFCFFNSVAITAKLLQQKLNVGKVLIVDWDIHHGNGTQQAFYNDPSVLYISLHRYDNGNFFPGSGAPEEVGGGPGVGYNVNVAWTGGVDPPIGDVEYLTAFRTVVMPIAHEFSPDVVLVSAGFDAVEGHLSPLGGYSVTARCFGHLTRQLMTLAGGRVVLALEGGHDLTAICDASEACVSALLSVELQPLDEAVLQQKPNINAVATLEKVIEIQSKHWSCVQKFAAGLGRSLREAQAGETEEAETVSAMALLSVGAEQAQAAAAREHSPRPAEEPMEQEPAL

OCI-AML2 = test: Antiproliferative activity against human OCI-AML2 cells incubated for 48 hrs; type: functional, cell-based; details: OCI-AML2, 48 h
Kasumi 1 = test: Antiproliferative activity against human Kasumi 1 cells incubated for 48 hrs; type: functional, cell-based; details: Kasumi 1, 48 h
Histone deacetylase 2 = Histone deacetylase 2 (Homo sapiens, UniProt Q92769)
Sequence of Histone deacetylase 2 (Q92769 whole entry): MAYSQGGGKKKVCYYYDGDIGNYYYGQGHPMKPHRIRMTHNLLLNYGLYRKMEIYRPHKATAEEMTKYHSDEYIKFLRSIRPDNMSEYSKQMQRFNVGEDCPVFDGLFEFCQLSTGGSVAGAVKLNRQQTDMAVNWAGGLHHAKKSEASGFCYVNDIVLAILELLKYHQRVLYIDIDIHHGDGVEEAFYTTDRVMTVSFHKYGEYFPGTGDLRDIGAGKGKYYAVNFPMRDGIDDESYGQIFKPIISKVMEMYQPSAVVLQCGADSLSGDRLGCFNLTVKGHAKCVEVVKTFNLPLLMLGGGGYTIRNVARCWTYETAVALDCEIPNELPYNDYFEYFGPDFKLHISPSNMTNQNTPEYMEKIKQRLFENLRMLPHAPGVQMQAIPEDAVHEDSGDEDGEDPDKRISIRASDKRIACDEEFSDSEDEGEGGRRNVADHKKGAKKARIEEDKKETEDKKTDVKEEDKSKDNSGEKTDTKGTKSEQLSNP

U-937 [7] = test: Induction of cell cycle arrest in human U-937 cells assessed as accumulation of cells in pre-G1 phase at 5 uM for 48 hrs by PI staining based flow cytometric analysis; type: functional; details: 48 h, 5 µM
U-937 [8] = test: Induction of cell cycle arrest in human U-937 cells assessed as accumulation of cells in G1 phase at 1 to 5 uM for 48 hrs by PI staining based flow cytometric analysis; type: functional; details: dose 1-5 µM
K562 = test: cells; type: functional, cell-based; details: Homo sapiens, K562, 72 h
KARPAS-299 = test: Antiproliferative activity against human KARPAS-299 cells incubated for 48 hrs; type: functional, cell-based; details: KARPAS-299, 48 h
HL-60 = test: Antiproliferative activity against human HL-60 cells incubated for 48 hrs; type: functional, cell-based; details: HL-60, 48 h
Histone deacetylase 11 [9] = target: T2, Histone deacetylase 11; remark: listed apart in the source

Q: What does the source list for `Nc1ccccc1NC(=O)c1ccc(NC(=O)Cc2ccc3ccccc3c2)cn1`?
A: pIC50 (OCI-AML-3): 5.38; pIC50 [1]: 6.81; pIC50 (HCT-116): 6.37; Activity (U-937 [2]): 10%; IC50 (Histone deacetylase 7): Not Active; IC50 (Histone deacetylase 4): Not Active; pIC50 (A549): 5.89; pIC50 (Histone deacetylase 1): 6.72; IC50 (Histone deacetylase 9): Not Active; IC50 (Histone deacetylase 11 [3]): Not Active; IC50 (Histone deacetylase 8): Not Active; pIC50 (NB-4): 6.68; Activity (U-937 [4]): 100%; pIC50 (MV4-11): 6.77; pIC50 (U-937 [5]): 6.09; pIC50 [6]: 6.35; pIC50 (Histone deacetylase 3): 6.36; IC50 (Histone deacetylase 5): Not Active; pIC50 (OCI-AML2): 5.82; pIC50 (Kasumi 1): 6.59; pIC50 (Histone deacetylase 2): 6.64; Activity (U-937 [7]): 50% and 30%; Activity (U-937 [8]): 70%; pIC50 (K562): 6.43; pIC50 (KARPAS-299): 5.03; pIC50 (HL-60): 6.66

Q: What does the source list for `Nc1ccccc1NC(=O)c1ccc(NC(=O)C(Cc2ccccc2)c2ccccc2)cn1` (stereo unspecified)?
A: pIC50 (HCT-116): 6.49; Activity (U-937 [2]): 10%; IC50 (Histone deacetylase 7): Not Active; IC50 (Histone deacetylase 4): Not Active; pIC50 (A549): 5.82; pIC50 (Histone deacetylase 1): 6.45; pIC50 (Histone deacetylase 11 [9]): 4.07; IC50 (Histone deacetylase 9): Not Active; IC50 (Histone deacetylase 8): Not Active; pIC50 [6]: 6.49; pIC50 (Histone deacetylase 3): 6.29; IC50 (Histone deacetylase 5): Not Active; pIC50 (Histone deacetylase 2): 6.37; Activity (U-937 [8]): 70%; pIC50 (K562): 6.49
